Results reported in patent US12390532B2, “ALK protein regulator and anti-tumor application thereof” (SHANGHAITECH UNIVERSITY, priority 2019, dated 2025).
Where two headings read alike, the source gives them in different places.

Tested on: SR cells (NPM-ALK, human anaplastic large cell lymphoma cells)
Assay: Proliferation inhibition (IC50) in SR cells, CCK8 (WST) reagent
Format: cell-based
Settings: 72 h
Description: The ALK gene rearrangement positive cell line used was SR cells (NPM-ALK, human anaplastic large cell lymphoma cells). MDA-MB231 was a triple-negative breast cancer cell. Both SR cells and MDA-MB231 cells were purchased from ATCC.
The tumor cell line used was daily cultured in a 37° C. incubator containing 5% CO2. The medium was RPMI1640 supplemented with 10% FCS and Penicillin-Streptomycin.
The IC50 of the compound of the present disclosure was determined using Promega's Cell Titer Blue, Cell Titer GLO or commercially available WST reagents. The specific steps were as follows: the cells were seeded in a 96-well plate containing 100 microliters of RPMI medium containing serum at a number of 2000 cells/well. On the second day, the original drug and the compound of the present disclosure were serially diluted and added to the cells. After 72 hours of treatment with the compound of the present disclosure, the cell activity detection reagent was added to the culture medium for cell activity determination according to the instructions. The negative control was DMSO, and the positive control was the original drug, and the cells were treated in the same manner as the compound of the present disclosure. The growth inhibition of the compounds of the present disclosure on cells was plotted by Prism Graphpad software and the IC50 of the compounds of the present disclosure was counted from it.
We conducted dose-dependent experiments on the designed and synthesized compounds of the present disclosure in SR cells. […] The cells were treated with different concentrations of compounds (starting at 10 μM, 3 times dilution factor, 10 concentrations). After 72 hours, the cells were detected using CCK8 reagent (WST).

[1] = SR cells, WST reagent, 72 hours, read-out: IC50 (half inhibitory concentration), Brigatinib series in lymphoma cell lines
[2] = read-out: IC50 (half inhibitory concentration), Alectinib series in lymphoma cell lines, SR cells, WST reagent, 72 hours

Row | Compound | IC50 [1] | IC50 [2]
1 | CCc1cc2c(cc1N1CCC(N3CCN(C(=O)CCCNc4cccc5c4CN(C4CCC(=O)NC4=O)C5=O)CC3)CC1)C(C)(C)c1[nH]c3cc(C#N)ccc3c1C2=O (stereo not shown) [SIAIS262092, 8-(4-(4-(4-((2-(2,6-dioxopiperidin-3-yl)-1-oxoisoindolin-4-yl)amino)butyryl)piperazin-1-yl)piperidin-1-yl)-9-ethyl-6,6-dimethyl-11-oxo-6,11-dihydro-5H-benzo[b]carbazole-3-carbonitrile] | – | 1.37 ± 0.87 nM
2 | COc1cc(N2CCC(N3CCN(C(=O)COCCOCCNc4cccc5c4CN(C4CCC(=O)NC4=O)C5=O)CC3)CC2)ccc1Nc1ncc(Cl)c(Nc2ccccc2P(C)(C)=O)n1 (stereo not shown) [SIAIS352054, 3-(4-((2-(2-(2-(4-(1-(4-((5-chloro-4-((2-(dimethylphosphono)phenyl)amino)pyrimidine-2-yl)amino)-3-methoxyphenyl)piperidin-4-yl)piperazin-1-yl)-2-oxoethoxy)ethoxy)ethyl)amino)-1-oxoisoindolin-2-yl)piperidine-2,6-dione] | 22 ± 10.9 nM | –
3 | COc1cc(N2CCC(NCCCCCCSc3cccc4c3CN(C3CCC(=O)NC3=O)C4=O)CC2)ccc1Nc1ncc(Cl)c(Nc2ccccc2P(=O)(OC)OC)n1 (stereo not shown) [SIAIS293110, 3-(4-((6-((1-(4-((5-chloro-4-((2-(dimethylphosphono)phenyl)amino)pyrimidin-2-yl)amino)-3-methoxyphenyl)piperidin-4-yl)amino)hexyl)thio)-1-oxoisoindolin-2-yl)piperidine-2,6-dione] | 0.33 ± 0.11 nM | –
4 | CCc1cc2c(cc1N1CCC(N3CCN(C(=O)CCCCCCNc4cccc5c4CN(C4CCC(=O)NC4=O)C5=O)CC3)CC1)C(C)(C)c1[nH]c3cc(C#N)ccc3c1C2=O (stereo not shown) [SIAIS262095, 8-(4-(4-(7-((2-(2,6-dioxopiperidin-3-yl)-1-oxoisoindolin-4-yl)amino)heptanoyl)piperazin-1-yl)piperidin-1-yl)-9-ethyl-6,6-dimethyl-1-oxo-6,11-dihydro-5H-benzo[b]carbazole-3-carbonitrile] | – | 3.2 ± 1.93 nM
5 | CCc1cc2c(cc1N1CCC(N3CCN(CCCCCCNc4cccc5c4C(=O)N(C4CCC(=O)NC4=O)C5=O)CC3)CC1)C(C)(C)c1[nH]c3cc(C#N)ccc3c1C2=O (stereo not shown) [SIAIS293009, 8-(4-(4-(6-((2-(2,6-dioxopiperidin-3-yl)-1,3-dioxoisoindolin-4-yl)amino)hexyl)piperazin-1-yl)piperidin-1-yl)-9-ethyl-6,6-dimethyl-11-oxo-6,11-dihydro-5H-benzo[b]carbazole-3-carbonitrile] | – | 15.1 nM
6 | CCc1cc2c(cc1N1CCC(N3CCN(CCCCCC#Cc4cccc5c4CN(C4CCC(=O)NC4=O)C5=O)CC3)CC1)C(C)(C)c1[nH]c3cc(C#N)ccc3c1C2=O (stereo not shown) [SIAIS293014, 8-(4-(4-(7-(2-(2,6-dioxopiperidin-3-yl)-1-oxoisoindolin-4-yl)hept-6-yn-1-yl)piperazin-1-yl)piperidin-1-yl)-9-ethyl-6,6-dimethyl-11-oxo-6,11-dihydro-5H-benzo[b]carbazole-3-carbonitrile] | – | 3.2 nM
7 | CCc1cc2c(cc1N1CCC(N3CCNCC3)CC1)C(C)(C)c1[nH]c3cc(C#N)ccc3c1C2=O [Alectinib derivative C (SIAIS184192), 9-Ethyl-6,6-dimethyl-11-oxo-8-(4-(piperazin-1-yl)piperidin-1-yl)-6,11-dihydro-5H-benzo[b]carbazole-3-carbonitrile] | – | 10.1 ± 4.3 nM
8 | CCc1cc2c(cc1N1CCC(N3CCN(CCCCSc4cccc5c4CN(C4CCC(=O)NC4=O)C5=O)CC3)CC1)C(C)(C)c1[nH]c3cc(C#N)ccc3c1C2=O (stereo not shown) [SIAIS293060, 8-(4-(4-(4-((2-(2,6-dioxopiperidin-3-yl)-1-oxoisoindolin-4-yl)thio)butyl)piperazin-1-yl)piperidin-1-yl)-9-ethyl-6,6-dimethyl-11-oxo-6,11-dihydro-5H-benzo[b]carbazole-3-carbonitrile] | – | 0.1 ± 0.02 nM
9 | COc1cc(N2CCC(N3CCN(CCCCCC#Cc4cccc5c4CN(C4CCC(=O)NC4=O)C5=O)CC3)CC2)ccc1Nc1ncc(Cl)c(Nc2ccccc2P(C)(C)=O)n1 (stereo not shown) [SIAIS293015, 3-(4-(7-(4-(1-(4-((5-chloro-4-((2-(dimethylphosphono)phenyl)amino)pyrimidin-2-yl)amino)-3-methoxyphenyl)piperidin-4-yl)piperazin-1-yl)hept-1-yn-1-yl)-1-oxoisoindolin-2-yl)piperidine-2,6-dione] | 1.2 nM | –
10 | CCc1cc2c(cc1N1CCC(N3CCN(CCCCc4cccc5c4CN(C4CCC(=O)NC4=O)C5=O)CC3)CC1)C(C)(C)c1[nH]c3cc(C#N)ccc3c1C2=O (stereo not shown) [SIAIS293005, 8-(4-(4-(4-(2-(2,6-dioxopiperidin-3-yl)-1-oxoisoindolin-4-yl)butyl)piperazin-1-yl)piperidin-1-yl)-9-ethyl-6,6-dimethyl-11-oxo-6,11-dihydro-5H-benzo[b]carbazole-3-carbonitrile] | – | 1.9 nM
11 | COc1cc(N2CCC(N3CCN(C(=O)COc4cccc5c4C(=O)N(C4CCC(=O)NC4=O)C5=O)CC3)CC2)ccc1Nc1ncc(Cl)c(Nc2ccccc2P(C)(C)=O)n1 (stereo not shown) [SIAIS293016, 4-(2-(4-(1-(4-((5-chloro-4-((2-(dimethylphosphono)phenyl)amino)pyrimidin-2-yl)amino)-3-methoxyphenyl)piperidin-4-yl)piperazin-1-yl)-2-oxoethoxy)-2-(2,6-dioxopiperidin-3-yl)isoindoline-1,3-dione] | 7.2 nM | –
12 | CCc1cc2c(cc1N1CCC(N3CCN(CCCCCNc4cccc5c4C(=O)N(C4CCC(=O)NC4=O)C5=O)CC3)CC1)C(C)(C)c1[nH]c3cc(C#N)ccc3c1C2=O (stereo not shown) [SIAIS293008, 8-(4-(4-(5-((2-(2,6-dioxopiperidin-3-yl)-1,3-dioxoisoindolin-4-yl)amino)pentyl)piperazin-1-yl)piperidin-1-yl)-9-ethyl-6,6-dimethyl-11-oxo-6,11-dihydro-5H-benzo[b]carbazole-3-carbonitrile] | – | 5.2 nM

Now from value to compound:

Row | IC50 [1] | IC50 [2] | Compound
13 | 1.1 ± 0.2 nM | – | COc1cc(N2CCC(N(C)CCCCCSc3cccc4c3CN(C3CCC(=O)NC3=O)C4=O)CC2)ccc1Nc1ncc(Cl)c(Nc2ccccc2P(C)(C)=O)n1 (stereo not shown) [SIAIS353044, 3-(4-((5-((1-(4-((5-chloro-4-((2-(dimethylphosphono)phenyl)amino)pyrimidin-2-yl)amino)-3-methoxyphenyl)piperidin-4-yl)(methyl)amino)pentyl)thio)-1-oxoisoindolin-2-yl)piperidine-2,6-dione]
14 | 4.8 ± 0.1 nM | – | COc1cc(N2CCC(N(C)CCCC#Cc3cccc4c3CN(C3CCC(=O)NC3=O)C4=O)CC2)ccc1Nc1ncc(Cl)c(Nc2ccccc2P(C)(C)=O)n1 (stereo not shown) [SIAIS353050, 3-(4-(5-((1-(4-((5-chloro-4-((2-(dimethylphosphono)phenyl)amino)pyrimidin-2-yl)amino)-3-methoxyphenyl)piperidin-4-yl)(methyl)amino)pent-1-yn-1-yl)-1-oxoisoindolin-2-yl)piperidine-2,6-dione]
15 | 17.1 ± 10.9 nM | – | COc1cc(N2CCC(N(C)C(=O)CSc3cccc4c3CN(C3CCC(=O)NC3=O)C4=O)CC2)ccc1Nc1ncc(Cl)c(Nc2ccccc2P(C)(C)=O)n1 (stereo not shown) [SIAIS353007, N-(1-(4-((5-chloro-4-((2-(dimethylphosphono)phenyl)amino)pyrimidin-2-yl)amino)-3-methoxyphenyl)piperidin-4-yl)-2-((2-(2,6-dioxopiperidin-3-yl)-1-oxoisoindolin-4-yl)thio)-N-methyl acetamide]
16 | 0.6 ± 0.4 nM | – | COc1cc(N2CCC(N3CCN(C(=O)NCCCCSc4cccc5c4CN(C4CCC(=O)NC4=O)C5=O)CC3)CC2)ccc1Nc1ncc(Cl)c(Nc2ccccc2P(C)(C)=O)n1 (stereo not shown) [SIAIS353062, 4-(1-(4-((5-chloro-4-((2-(dimethylphosphono)phenyl)amino)pyrimidin-2-yl)amino)-3-methoxyphenyl)piperidin-4-yl)-N-(4-((2-(2,6-dioxopiperidin-3-yl)-1-oxoisoindolin-4-yl)thio)butyl)piperazine-1-carboxamide]
17 | 0.9 ± 0.2 nM | – | COc1cc(N2CCC(N(C)CCCCSc3cccc4c3CN(C3CCC(=O)NC3=O)C4=O)CC2)ccc1Nc1ncc(Cl)c(Nc2ccccc2P(C)(C)=O)n1 (stereo not shown) [SIAIS353043, 3-(4-((4-((1-(4-((5-chloro-4-((2-(dimethylphosphono)phenyl)amino)pyrimidin-2-yl)amino)-3-methoxyphenyl)piperidin-4-yl) (methyl)amino)butyl)thio)-1-oxoisoindolin-2-yl)piperidine-2,6-dione]
18 | 10.5 ± 5.6 nM | – | COc1cc(N2CCC(N(C)C(=O)CCCCCSc3cccc4c3CN(C3CCC(=O)NC3=O)C4=O)CC2)ccc1Nc1ncc(Cl)c(Nc2ccccc2P(C)(C)=O)n1 (stereo not shown) [SIAIS353009, N-(1-(4-((5-chloro-4-((2-(dimethylphosphono)phenyl)amino)pyrimidin-2-yl)amino)-3-methoxyphenyl)piperidin-4-yl)-6-((2-(2,6-dioxopiperidin-3-yl)-1-oxoisoindolin-4-yl)thio)-N-methyl hexanamide]
19 | 0.5 ± 0.2 nM | – | COc1cc(N2CCC(N(C)CCCCCCSc3cccc4c3CN(C3CCC(=O)NC3=O)C4=O)CC2)ccc1Nc1ncc(Cl)c(Nc2ccccc2P(C)(C)=O)n1 (stereo not shown) [SIAIS353041, 3-(4-((6-((1-(4-((5-chloro-4-((2-(dimethylphosphono)phenyl)amino)pyrimidin-2-yl)amino)-3-methoxyphenyl)piperidin-4-yl)(methyl)amino)hexyl)thio)-1-oxoisoindolin-2-yl)piperidine-2,6-dione]
